Laboratory results taken from ChEMBL document CHEMBL1944520, “Discovery of 3-aryloxy-lactam analogs as potent androgen receptor full antagonists for treating castration resistant prostate cancer” (Bioorg Med Chem Lett, 2012).
In brackets after ≈: the same amount, converted by molar mass.

Assays:
[1] = molecular target: T1, Androgen receptor (Homo sapiens) (UniProt P10275); assay: Antagonist activity at androgen receptor expressed in human LNAR cells assessed as inhibition of R1881-induced luciferase activity at 1 uM by spectrophotometry; type: functional, cell-based
T1 sequence (whole entry): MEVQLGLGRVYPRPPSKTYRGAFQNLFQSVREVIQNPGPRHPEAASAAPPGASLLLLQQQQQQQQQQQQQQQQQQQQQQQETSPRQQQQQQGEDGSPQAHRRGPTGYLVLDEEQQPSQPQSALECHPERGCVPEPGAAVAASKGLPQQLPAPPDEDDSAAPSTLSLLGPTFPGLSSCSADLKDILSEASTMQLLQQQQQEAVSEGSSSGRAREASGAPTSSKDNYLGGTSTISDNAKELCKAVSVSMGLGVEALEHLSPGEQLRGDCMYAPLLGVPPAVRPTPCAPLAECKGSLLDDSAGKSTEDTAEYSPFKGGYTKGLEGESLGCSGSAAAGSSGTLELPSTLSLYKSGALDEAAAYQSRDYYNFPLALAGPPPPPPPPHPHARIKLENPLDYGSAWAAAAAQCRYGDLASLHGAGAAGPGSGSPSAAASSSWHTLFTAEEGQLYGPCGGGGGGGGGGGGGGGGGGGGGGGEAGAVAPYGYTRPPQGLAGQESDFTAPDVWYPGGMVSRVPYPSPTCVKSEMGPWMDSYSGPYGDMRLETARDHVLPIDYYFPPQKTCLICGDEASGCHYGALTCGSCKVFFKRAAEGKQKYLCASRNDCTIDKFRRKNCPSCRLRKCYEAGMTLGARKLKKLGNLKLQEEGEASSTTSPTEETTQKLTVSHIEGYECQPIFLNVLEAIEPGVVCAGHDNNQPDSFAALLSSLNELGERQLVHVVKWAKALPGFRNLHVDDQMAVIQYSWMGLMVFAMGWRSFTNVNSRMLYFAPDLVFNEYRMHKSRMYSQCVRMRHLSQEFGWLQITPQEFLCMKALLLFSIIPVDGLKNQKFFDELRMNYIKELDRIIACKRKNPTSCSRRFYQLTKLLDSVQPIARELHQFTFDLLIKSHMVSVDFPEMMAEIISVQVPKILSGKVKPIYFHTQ

[2] = molecular target: T1, Androgen receptor (Homo sapiens); assay: Agonist activity at androgen receptor expressed in human LNAR cells as induction of luciferase activity by spectrophotometry relative to untreated control; type: functional, cell-based
Androgen receptor = molecular target: T2, Androgen receptor (Homo sapiens, UniProt P10275); assay: Antagonist activity at androgen receptor expressed in human LNAR cells assessed as inhibition of R1881-induced luciferase activity by spectrophotometry; type: functional, cell-based
T2 sequence (P10275 whole entry): T1 sequence (whole entry)

Liver microsomes = assay: Unbound intrinsic clearance in human liver microsomes; type: ADME, Microsome
Rattus norvegicus = assay: Unbound plasma clearance in iv dosed rat; type: ADME, organism-based; details: in vivo
[3] = Oral bioavailability in rat; type: ADME, organism-based; details: in vivo
[4] = Solubility of the compound at pH 7.4; type: physicochemical; details: buffer
[5] = Fraction unbound in human; type: ADME, organism-based; details: in vivo
[6] = molecular target: T1, Androgen receptor (Homo sapiens); assay: Antagonist activity at androgen receptor expressed in human LNAR cells assessed as inhibition of R1881-induced luciferase activity at 0.1 uM by spectrophotometry; type: functional, cell-based

inhibition [1] | Structure (SMILES) | fold change (FC) [2] | IC50 (Androgen receptor) | also measured
– | CC1(C)CN(CCO)C(=O)[C@@H]1Oc1ccc(C#N)c(C(F)(F)F)c1 | 1.03 | 263 nM | –
– | CC1(C)CN(C(C)(C)CO)C(=O)[C@@H]1Oc1ccc(C#N)c(C(F)(F)F)c1 | 0.91 | 761 nM | –
– | CC(CO)N1CC(C)(C)[C@@H](Oc2ccc(C#N)c(C(F)(F)F)c2)C1=O (stereo in doubt; 14) [listing 1 of 2 here] | 1.06 | – | –
27% | CC(O)(CO)CN1CC(C)(C)[C@@H](Oc2ccc(C#N)c(C(F)(F)F)c2)C1=O (stereo in doubt; 25) | 0.92 | – | –
– | CC(CO)CN1CC(C)(C)[C@@H](Oc2ccc(C#N)c(C(F)(F)F)c2)C1=O (stereo in doubt; 23) [listing 1 of 2 here] | 0.95 | – | –
– | CC1(C)CN(Cc2nnc(-c3ccccc3)o2)C(=O)[C@@H]1Oc1ccc(C#N)c(C(F)(F)F)c1 | 0.95 | 71 nM | CL free (Liver microsomes): 19.3 µL/min/mg; CL free (Rattus norvegicus): 921 mL/min/kg; bioavailability [3]: 10%; solubility [4]: 5.9 µg/mL (≈ 12.9 µM); fraction unbound [5]: 0.0127
– | CC(CO)N1CC(C)(C)[C@@H](Oc2ccc(C#N)c(C(F)(F)F)c2)C1=O (stereo in doubt; 15) [listing 1 of 2 here] | – | 337 nM | –
– | CC(O)CN1CC(C)(C)[C@@H](Oc2ccc(C#N)c(C(F)(F)F)c2)C1=O (stereo in doubt; 18) [listing 1 of 2 here] | 0.99 | – | –
– | CC1(C)CN(CCC#N)C(=O)[C@@H]1Oc1ccc(C#N)c(C(F)(F)F)c1 | 0.89 | 131 nM | CL free (Liver microsomes): 19.1 µL/min/mg; CL free (Rattus norvegicus): 170 mL/min/kg; bioavailability [3]: 64%; solubility [4]: 57 µg/mL (≈ 162 µM); fraction unbound [5]: 0.226
– | Cc1nnc(CN2CC(C)(C)[C@@H](Oc3ccc(C#N)c(C(F)(F)F)c3)C2=O)o1 | 0.97 | 633 nM | solubility [4]: 217 µg/mL (≈ 550 µM)
– | CC(CO)N1CC(C)(C)[C@@H](Oc2ccc(C#N)c(C(F)(F)F)c2)C1=O (stereo in doubt; 14) [listing 2 of 2 here] | – | 371 nM | –
52% | CC1(C)CN(CCC#N)C(=O)[C@@H]1Oc1cnc(C#N)c(C(F)(F)F)c1 | 0.89 | – | –
– | CC(CO)CN1CC(C)(C)[C@@H](Oc2ccc(C#N)c(C(F)(F)F)c2)C1=O (stereo in doubt; 23) [listing 2 of 2 here] | – | 371 nM | –
– | CC1(C)CN(CCC#N)C(=O)[C@@H]1Oc1ccc(C#N)c(Cl)c1 | 0.99 | 68 nM | solubility [4]: 159 µg/mL (≈ 500 µM)
17% | CC(O)(CO)CN1CC(C)(C)[C@@H](Oc2ccc(C#N)c(C(F)(F)F)c2)C1=O (stereo in doubt; 24) | 1.01 | – | –
29% | CC(C)(O)CN1CC(C)(C)[C@@H](Oc2ccc(C#N)c(C(F)(F)F)c2)C1=O | 0.9 | – | –
– | CC(=O)CN1CC(C)(C)[C@@H](Oc2ccc(C#N)c(C(F)(F)F)c2)C1=O | 0.91 | 266 nM | –
– | CC(O)CN1CC(C)(C)[C@@H](Oc2ccc(C#N)c(C(F)(F)F)c2)C1=O (stereo in doubt; 18) [listing 2 of 2 here] | – | 216 nM | –
10% | CC1(C)CN(CCC#N)C(=O)[C@@H]1Oc1ccc(C#N)cc1 | 0.95 | – | –
– | COC(=O)CN1CC(C)(C)C(Oc2ccc(C#N)c(C(F)(F)F)c2)C1=O (racemic) | 1.05 | 303 nM | –
– | CC(O)CN1CC(C)(C)[C@@H](Oc2ccc(C#N)c(C(F)(F)F)c2)C1=O (single isomer, unassigned) [listing 1 of 2 here] | 0.97 | – | –
– | CC(O)CN1CC(C)(C)[C@@H](Oc2ccc(C#N)c(C(F)(F)F)c2)C1=O (single isomer, unassigned) [listing 2 of 2 here] | – | 977 nM | –
– | CC(CO)N1CC(C)(C)[C@@H](Oc2ccc(C#N)c(C(F)(F)F)c2)C1=O (stereo in doubt; 15) [listing 2 of 2 here] | 1.02 | – | –
– | CC1(C)CNC(=O)[C@@H]1Oc1ccc(C#N)c(C(F)(F)F)c1 | 1.31 | 105 nM | –
23% | CNC(=O)CN1CC(C)(C)C(Oc2ccc(C#N)c(C(F)(F)F)c2)C1=O (racemic) | 0.85 | – | –
– | C[C@@H](c1nnc(-c2ccccc2)o1)N1CC(C)(C)[C@@H](Oc2ccc(C#N)c(C(F)(F)F)c2)C1=O | 3.09 | – | inhibition [6]: 62%; CL free (Liver microsomes): 43.87 µL/min/mg; CL free (Rattus norvegicus): 4294 mL/min/kg; bioavailability [3]: 25%; solubility [4]: 3.7 µg/mL (≈ 7.86 µM); fraction unbound [5]: 0.0181
– | CC(c1nnc(-c2cccc(F)c2)o1)N1CC(C)(C)C(Oc2ccc(C#N)c(C(F)(F)F)c2)C1=O (racemic) | 1.43 | 77 nM | CL free (Liver microsomes): 115 µL/min/mg; CL free (Rattus norvegicus): 1585 mL/min/kg; bioavailability [3]: 10%; solubility [4]: 3.8 µg/mL (≈ 7.78 µM); fraction unbound [5]: 0.00825
47% | CC1(C)CN(CCC#N)C(=O)[C@@H]1Oc1cc(C(F)(F)F)c(C#N)cn1 | 1.16 | – | –

Structure (SMILES) | inhibition [1] | fold change (FC) [2] | IC50 (Androgen receptor) | also measured
CC1(C)CN(CC#N)C(=O)[C@@H]1Oc1ccc(C#N)c(C(F)(F)F)c1 | 89% | 2.75 | – | –
CCCCN1CC(C)(C)[C@@H](Oc2ccc(C#N)c(C(F)(F)F)c2)C1=O | 85% | 2.12 | – | –
CCCN1CC(C)(C)[C@@H](Oc2ccc(C#N)c(C(F)(F)F)c2)C1=O | 88% | 1.45 | – | –
CC1(C)CN(CCCO)C(=O)[C@@H]1Oc1ccc(C#N)c(C(F)(F)F)c1 | 87% | 1.11 | – | –
CC(CO)CN1CC(C)(C)[C@@H](Oc2ccc(C#N)c(C(F)(F)F)c2)C1=O (stereo in doubt; 22) | 96% | 1.01 | – | –
